These results are taken from patent publication US10130677B2, “Antimicrobial peptide and uses thereof” (priority 2013, dated 2018).

For orientation: IC90 means the concentration at which the effect reaches the 90% level.

Like-named read-outs stand apart in the source and are kept apart here. Bounds are passed on as bounds.

In assay [1] the test system is UV-killed S. aureus JAR060131-induced IL-8 production. The assay is described as follows: S. aureus neutralization in whole human blood. The note with it: UV-killed S. aureus JAR060131-induced IL-8; blood from one donor. It counts as cell-based. How it is done: (§1) Peptides were pre-incubated with 500 ng/ml LPS (E. coli 054) or 2 mg/ml LTA (S. aureus, endotoxin-free) or 1×10^9 CFU/ml of UV-killed S. aureus JAR060131 for 30 min at 37° C. Diluted whole human blood was stimulated with the peptide-LPS/LTA/S. aureus mixtures for 20 hours at 37° C. IL-12p40 and IL-8 levels in supernatants were determined using ELISA.

For assay [2], the system named is S. aureus JAR060131 biofilm formation. It counts as cell-based, Staphylococcus aureus. As for the experimental part: After solubilization with ethanol, the optical density at 590 nm is determined as a measure of biofilm mass.
Peptides were incubated with 1×10^8 CFU/ml of S. aureus JAR060131 in biofilm-adjusted BM2 in 96-wells polypropylene plates as described in Antimicrob Agents Chemother 2012; 56: 2696-2704. After 24 hours incubation at 37° C., planktonic bacteria were removed by four washes with PBS and biofilms were stained with crystal violet. After solubilization with ethanol, the optical density at 590 nm was determined as a measure of biofilm mass.
To assess the antibiofilm activity of the peptides in the presence of plasma, 96-wells polypropylene plates were coated with plasma by overnight incubation with 20% plasma at 4° C. Wells were washed once with sterile water and inoculated with S. aureus and peptides as described above.

For assay [3], the system named is stationary phase S. aureus JAR060131. In kind it is cell-based, Staphylococcus aureus. How it is done: Bacteria were stored at −80° C. until use. Inoculi of mid log phase bacteria were prepared by incubating isolated bacterial colonies from blood agar plates in Tryptic Soy Broth (TSB) medium (Becton Dickinson, Le Pont de Clax, France) for 2.5 hours and then diluted to the concentration needed. Stationary phase S. aureus JAR060131 was obtained from 18-20 hour cultures.
To assess the antimicrobial activity of the peptides towards stationary phase bacteria, peptides were incubated under the conditions described above with 1×10^6 CFU/ml of stationary phase S. aureus JAR060131, obtained from 18-20 hour cultures.

For another assay, the system named is A. niger PagsA-lux. The experiment in a line: Effect on fungal growth. In kind it is cell-based, Aspergillus niger. As for the experimental part:
The effect of the peptides on fungal growth was assessed using Aspergillus niger. Peptides were incubated with 7.5×10^4 spores/ml of A. niger PagsA-lux in PBS without or with addition of pooled human plasma at a final concentration of 25%. As positive control, spores were treated with the antifungal caspofungin (Cancidas). Absorbance was measured over time and at 16 hours, fungal growth was visualized using light microscopy.

Assay [4] deals with Staphylococcus epidermidis RP62a. It counts as cell-based. As for the experimental part: (§2) Peptides were incubated with 1×10^6 CFU/ml of a mid-logarithmic culture of S. aureus JAR060131, methicillin resistant S. aureus (MRSA) LUH14616, Staphylococcus epidermidis RP62a, and Pseudomonas aeruginosa PAO1 in PBS without or with addition of pooled human plasma (Sanquin, Amsterdam, the Netherlands) at a final concentration of 50%. Antimicrobial activity is expressed as the 99.9% lethal concentration (LC99.9), i.e., the lowest peptide concentration which killed ≥99.9% of bacteria after 2 hours of incubation at 37° C. under shaking conditions.

The test system of another assay is bacteria. In kind it is cell-based. An excerpt:
The currently known AMPs, including OP-145, still have a few drawbacks. For instance, various bacteria, such as P. aeruginosa, E. faecalis, Proteus mirabilis, Streptococcus pyogenes and S. aureus all secrete proteases that degrade several antimicrobial peptides, such as the cathelicidin LL-37. Thus, protease resistant antimicrobial peptides are advantageous from a therapeutical standpoint. Furthermore, due to potential lytic effect as well as other properties of AMPs against bacterial but also mammalian membranes, one of the challenges in designing new peptides relies on developing AMPs with high specificity against microorganisms such as bacterial or fungal cells as compared to cellular membranes of the infected patient, i.e., a high therapeutic index (minimal hemolytic concentration/minimal antimicrobial activity; MHC/MEC). Another important disadvantage of known AMPs, including OP-145, is that its activity is strongly affected by the presence of plasma components. For instance, for OP-145 the LC99.9 (the lowest peptide concentration which kills ≥99.9% of bacteria) in PBS of 1.6 μM, whereas the LC99.9 in PBS/plasma (1:1) is about 200 μM. This is in particular a disadvantage for systemically administered AMPs.

In assay [5] the test system is LPS (E. coli 054)-induced IL-12p40 production. The assay is described as follows: LPS neutralization in whole human blood. In kind it is cell-based.
Source text: The term “anti-inflammatory activity” of a polypeptide as used herein refers to inhibiting, reducing or preventing an inflammatory response in a subject that has been infected by microbes, e.g. bacteria, viruses, fungi, and/or parasites. Anti-inflammatory activity of polypeptides of the invention is achieved by inhibiting, reducing or preventing the release of pro-inflammatory microbial compounds, such as lipoteichoic acid (LTA), peptidoglycan (PG) and/or lipopolysaccharides (LPS). Anti-inflammatory activity can be measured by methods known in the art. Examples of such method are a LPS neutralization assay and a LTA neutralization assay as described in the Examples of this application. In such method, a polypeptide of the invention is mixed with a fixed concentration of LPS or LTA, such as 500 ng/ml LPS or 2 mg/ml LTA, and incubated for 30 min. Thereafter, these mixtures were added to diluted fresh human whole blood and 20 hours thereafter the level of cytokines (e.g. 1L-8 for LTA and 1L-12p40 for LPS) in the blood sample are measured by ELISA.
as §1

Assay [6] relates to methicillin resistant S. aureus (MRSA) LUH14616. In kind it is cell-based, Staphylococcus aureus. As for the experimental part:
as §2

Another assay concerns Candida albicans Y-O1. In kind it is cell-based. How it is done:
Peptides were incubated with 1×10^5 cells/ml of a mid-logarithmic culture of Candida albicans Y-O1, without or with addition of pooled human plasma at a final concentration of 50%. Antimicrobial activity is expressed as the 99% lethal concentration (LC99), i.e., the lowest peptide concentration at which ≥99% of cells were killed after 2 hours of incubation at 37° C. under shaking conditions.

The mark [7] stands for this setting: 50% plasma, mid-logarithmic culture, median (Table 3).

Turning to “Ac-IGKEFKRIVERIKRFLRELVRPLR-NH2 [OP-145, JIGKEFKRIVERIKRFLRELVRPLRB, reference compound]”, the IC50 in assay [1] worked out at 0.195 µM; in assay [2] (JAR060131 biofilm formation, 24 h), 3200 nM; in assay [2] (plasma-coated wells (FIG. 3B), read-out: concentration inhibiting biofilm formation for 50%), 3200 nM; in assay [5] (diluted whole human blood, 20 hours), 0.15 nM. Also, the LC99.9 is >204.8 µM in [3] (50% plasma, stationary suspension, mean of three experiments (Table 4)); 1.6 µM in [3] (stationary phase JAR060131); 204.8 µM in [4] (setting [7]); 0.8 µM in assay [4] (RP62a); 1.6 µM with bacteria (PBS); “about 200 μM” in the assay on bacteria (PBS/plasma (1:1)). Besides, the LC99.9 was 204.8 µM in assay [6] (setting [7]) and 1.6 µM in assay [6] (methicillin resistant LUH14616). In the assay with A. niger PagsA-lux (25% plasma, light micrographs only, 16 hours (FIG. 2)), the “concentration inhibiting A. niger growth” value came to 204.8 µM. In addition, the “concentration inhibiting A. niger growth (by >99.9%)” value with A. niger PagsA-lux (PBS, optical density (FIG. 1)) came to 3.2 µM. Further, in assay [5] (LPS-induced IL-12p40, blood from two donors), the IC90 came to 1.25 nM. In addition, the “antifungal activity against C. albicans Y-O1 (in words)” value in the assay on Candida albicans Y-O1 (50% plasma, at 204.8 μM) was “no antifungal activity was observed”; in the assay with Candida albicans Y-O1 (PBS, at 51.2 μM), “no antifungal activity”. In addition, the LC99 is >204.8 µM with Candida albicans Y-O1 (50% plasma, mean of two experiments) and >51.2 µM with Candida albicans Y-O1 (Y-O1, 2 h).
